Source: paper PMC7689096, “Cyclizing Painkillers: Development of Backbone-Cyclic TAPS Analogs” (Frontiers in Chemistry, 2020)
Values joined by “and” are separate entries in the source; they are usually repeats but may differ in a detail not shown here. Equal values may be shown once.

Target: T1, human recombinant μ (MOP, OPRM1) receptor (Homo sapiens, UniProt P35372)
T1 construct: host or cells: CHO cells
Experiment: MOP opioid receptor functional agonism in CHO cells expressing human recombinant μ receptors
Assay type: cell-based
Details: At 10^−6 M, percent of control specific agonist response, values lower than 25% not significant
Description: Peptides were tested for μ (MOP, OPRM1) and δ (DOP, OPRD2) opioid receptor activation functional agonism and antagonism using CHO cells expressing human recombinant μ receptors and NG-10815 cells which express significant endogenous levels of δ opioid receptors. The cultures were incubated for 10 min at 37°C followed by impedance measurements of CHO cells and cAMP was assayed by the HTRF method using NG-10815 cells, according to CEREP standard assay protocols. The respective reference, non-peptide small molecules were tested concurrently with the TAPS analogs. The agonist compounds were: DPDPE (selective agonist of DOP receptor) and DAMGO (high MOP receptor specificity) and the antagonist compounds were: Naltrindole (selective DOP receptor antagonist) and CTOP (MOP receptor antagonist). […] The results are expressed as a percentage of respective control-specific response. […] These findings indicate that TAPS cyclic peptides are MOP selective full agonists. […] The cyclic TAPS peptide had lower activity than the linear parent TAPS peptide (90 ± 5%) – a finding that can be attributed to their restricted conformation relative to the flexible linear peptide conformation.
Evaluation of the Agonist Activity of Compounds at the Human μ Receptor in Transfected CHO Cells, Determined by Measuring Their Effects on cAMP modulation Using the HTRF Detection Method
Thereafter, the adenylyl cyclase activator NKH 477 is added at a final concentration of […]. Following 10 min incubation at 37°C, the cells are lysed and the fluorescence acceptor (D2-labeled cAMP) and fluorescence donor (anti-cAMP antibody labeled with europium cryptate) are added. After 60 min at room temperature, the fluorescence transfer is measured at lex = 337 nm and lem = 620 and 665 nm using a microplate reader (Rubystar, BMG). The cAMP concentration is determined by dividing the signal measured at 665 nm by that measured at 620 nm (ratio). The results are expressed as a percent of the control response to 1 μM DAMGO. The standard reference agonist is DAMGO, which is tested in each experiment at several concentrations to generate a concentration-response curve from which its EC50 value is calculated.
The respective reference, non-peptide small molecules were tested concurrently with the TAPS analogs; Agonist compounds DPDPE ([D-Pen2,D-Pen5]enkephalin), selective agonist of DOP receptor at 2 × 10^−9 M and DAMGO ([D-Ala2, N-MePhe4, Gly-ol] enkephalin), high MOP specificity at 2.5 × 10^−9 M; Antagonist compounds: naltrindole 7-(cyclopropylmethyl)-6,7-dehydro-4,5α-epoxy-3,14-dihydroxy-6,7-2′,3′-indolomorphinan hydrochloride, selective DOP antagonist, 5 × 10^−10 M and CTOP (D-Phe-Cys-Tyr-D-Trp-Orn-Thr-Pen-Thr-NH2), MOP antagonist at 3.4 × 10^−7 M. Depending on the assay volume and solvent tolerance, the stock solutions were diluted to [100×], [333×] or [1,000×] in 100% DMEM solvent, then either added directly or further diluted to [10×] or [5×] in H2O or Hank's balanced salt solution (HBSS) before addition to the assay well (final solvent concentration kept constant). The cultures were incubated for 10 min at 37°C followed by impedance measurements using cellular dielectric spectroscopy of CHO cells and cAMP was assayed by homogeneous time resolved fluorescence (HTRF) method using NG-10815 cells, according to CEREP standard assay protocols (https://euroscreenfast.com/assays/opioid-orl1-camp-fast-0360c; https://euroscreenfast.com/assays/opioid-op1-delta-camp-fast-0379c). The results (mean of three experiments) are expressed as a percent of control specific agonist response [(measured TAPS specific response/control specific agonist response) × 100] and as a percent inhibition of control specific agonist response [100 – (measured TAPS specific response/control specific agonist response) × 100] obtained in the presence of the TAPS compounds. […]

T1 sequence (P35372 whole entry): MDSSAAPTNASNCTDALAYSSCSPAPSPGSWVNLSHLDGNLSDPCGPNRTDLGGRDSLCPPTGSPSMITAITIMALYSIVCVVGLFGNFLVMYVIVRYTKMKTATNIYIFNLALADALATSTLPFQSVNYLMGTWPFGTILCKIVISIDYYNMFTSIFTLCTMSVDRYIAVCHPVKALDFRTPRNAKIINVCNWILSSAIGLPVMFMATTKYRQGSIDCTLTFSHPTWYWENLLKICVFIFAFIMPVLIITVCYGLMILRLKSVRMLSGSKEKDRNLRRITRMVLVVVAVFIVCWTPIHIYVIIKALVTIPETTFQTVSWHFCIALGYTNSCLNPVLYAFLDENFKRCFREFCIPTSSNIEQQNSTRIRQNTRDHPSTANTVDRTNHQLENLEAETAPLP

Structure (SMILES): N=C(N)NCCC[C@@H]1C(=O)N[C@@H](Cc2ccccc2)C(=O)N(CC(N)=O)CCNC(=O)NCCCCCCN1C(=O)[C@@H](N)Cc1ccc(O)cc1 [TAPS c(2-6)]
- MOP agonist (%): 48 ± 3% and 48^** %
